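All cell lines were grown in 96-well plates and treated with compound for 48 hours. Abbreviation: GI50, concentration required for 50% inhibition of growth. TGI: concentration producing complete growth inhibition.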
Tests used:
Test in all cases: inhibition of tumour cell growth, NCI panel, 48 h
[1] = system: HS 578T breast
[2] = system: HOP-92 NSCLC
[3] = system: SR leukemia
[4] = system: HCT-15 colon
[5] = system: HT29 colon
[6] = system: ACHN renal
[7] = system: SK-OV-3 ovarian
[8] = system: MCF7 breast
[9] = system: BT-549 breast
[10] = system: TK-10 renal
[11] = system: IGROV1 ovarian
[12] = system: MDA-MB-435
[13] = system: COLO 205 colon
[14] = system: MOLT-4 leukemia
[15] = system: SF-268 CNS
[16] = system: OVCAR-4 ovarian
[17] = system: SK-MEL-5 melanoma

For `O=C(CC(=O)N(C(=O)c1ccccc1)c1ccc(Cl)cc1)N/N=C\c1cc(N=Nc2ccccc2Cl)ccc1O`, the TGI [1] was 61.6 µM, the TGI [2] was 59.6 µM and the TGI [3] was 35.8 µM. For the same compound, the TGI [4] was > 100 µM, the TGI [5] was > 100 µM and the TGI [6] was > 100 µM. The TGI [7] was > 100 µM, the TGI [8] was > 100 µM and the TGI [9] was > 100 µM. For the same compound, the TGI [10] was > 100 µM, the TGI [11] was > 100 µM and the TGI [12] was > 100 µM. The TGI [13] was > 100 µM, the TGI [14] was 37.8 µM and the TGI [15] was > 100 µM.
In the case of `COc1cc(C2c3cc4c(cc3[C@H](OCCN(C)C)[C@@H]3COC(=O)C23)OCO4)cc(OC)c1O` (some centres not stated), the TGI [1] is reported as 6.04 µM, the TGI [2] is reported as 1.5 µM and the TGI [3] is reported as 0.778 µM. The GI50 [4] was 0.344 µM, the TGI [4] was > 100 µM and the TGI [5] was 3.01 µM. It also gave a TGI [6] of 0.253 µM, a TGI [16] of 4.97 µM and a TGI [7] of 1.31 µM. The TGI [8] was > 100 µM, the TGI [9] was 2.32 µM and the TGI [10] was 17.9 µM. For the same compound, the TGI [11] was 7.5 µM, the TGI [12] was 16.9 µM and the TGI [13] was 9.05 µM. For the same compound, the TGI [17] was 1.74 µM, the TGI [14] was 0.684 µM and the TGI [15] was 2.97 µM.
Work on `Cc1cc(C)cc(Nc2nnc3n2S(=O)(=O)c2cc(C#N)c(Cl)cc2S3)c1` yielded a TGI [1] of 15.8 µM, a TGI [3] of 3.42 µM and a TGI [4] of 8.16 µM. The TGI [5] was 4.98 µM, the TGI [6] was 10.7 µM and the TGI [16] was 22.1 µM. For the same compound, the TGI [7] was 21.9 µM, the TGI [8] was 6.56 µM and the TGI [9] was 5.98 µM. For the same compound, the TGI [11] was 1.68 µM, the TGI [12] was 10.4 µM and the TGI [13] was 34.6 µM. It also gave a TGI [17] of 20.7 µM, a TGI [14] of 52 µM and a TGI [15] of 5.48 µM.
In the case of `Cc1nnc([C@@]2(C)CC[C@H]3[C@@H](CC=C4C[C@@H](O)CC[C@@]43C)[C@@H]2CC#N)o1`, the TGI [1] is reported as > 100 µM, the TGI [2] is reported as > 100 µM and the TGI [3] is reported as > 100 µM. For the same compound, the TGI [4] was > 100 µM, the TGI [5] was > 100 µM and the TGI [6] was > 100 µM. The TGI [16] was > 100 µM, the TGI [7] was > 100 µM and the TGI [8] was > 100 µM. The TGI [9] was > 100 µM, the TGI [10] was > 100 µM and the TGI [12] was > 100 µM. For the same compound, the TGI [13] was > 100 µM, the TGI [17] was > 100 µM and the TGI [14] was > 100 µM. For the same compound, the TGI [15] was > 100 µM.
`O=C(CCc1ccc(O)cc1)NCCc1ccc(O)cc1` was tested, and the TGI [1] was > 100 µM, the TGI [2] was > 100 µM and the TGI [3] was > 100 µM. For the same compound, the TGI [4] was > 100 µM, the TGI [5] was > 100 µM and the TGI [6] was > 100 µM. For the same compound, the TGI [16] was > 100 µM, the TGI [7] was > 100 µM and the TGI [8] was > 100 µM. The TGI [9] was > 100 µM, the TGI [10] was > 100 µM and the TGI [11] was > 100 µM. For the same compound, the TGI [12] was > 100 µM, the TGI [13] was > 100 µM and the TGI [17] was > 100 µM. The TGI [14] was > 100 µM and the TGI [15] was > 100 µM.
For `Nc1nc(Cl)cc(NCC2(CO)COC2)n1`, the TGI [1] was > 100 µM, the TGI [3] was > 100 µM and the TGI [4] was > 100 µM. The TGI [5] was > 100 µM, the TGI [6] was > 100 µM and the TGI [16] was > 100 µM. The TGI [7] was > 100 µM, the TGI [8] was > 100 µM and the TGI [9] was > 100 µM. For the same compound, the TGI [10] was > 100 µM, the TGI [11] was > 100 µM and the TGI [12] was > 100 µM. For the same compound, the TGI [13] was > 100 µM, the TGI [17] was > 100 µM and the TGI [15] was > 100 µM.
For `Clc1cccc(Cl)c1C1SCC2=Nc3ccccc3CN21` (configuration not stated), the TGI [1] was 62.2 µM, the TGI [2] was > 100 µM and the TGI [3] was > 100 µM. The TGI [4] was > 100 µM, the TGI [16] was > 100 µM and the TGI [7] was 50.6 µM. For the same compound, the TGI [8] was 52.7 µM, the TGI [9] was > 100 µM and the TGI [10] was > 100 µM. For the same compound, the TGI [11] was 62.5 µM, the TGI [12] was > 100 µM and the TGI [13] was 27 µM. The TGI [17] was 29.2 µM, the TGI [14] was > 100 µM and the TGI [15] was > 100 µM.
In the case of `NS(=O)(=O)c1nnc(NC(=O)c2ccccc2)s1`, the TGI [1] is reported as > 100 µM, the TGI [2] is reported as > 100 µM and the TGI [3] is reported as > 100 µM. For the same compound, the TGI [4] was > 100 µM, the TGI [6] was > 100 µM and the TGI [16] was > 100 µM. The TGI [7] was > 100 µM, the TGI [8] was > 100 µM and the TGI [9] was > 100 µM. For the same compound, the TGI [10] was > 100 µM, the TGI [12] was > 100 µM and the TGI [13] was > 100 µM. The TGI [17] was > 100 µM, the TGI [14] was > 100 µM and the TGI [15] was > 100 µM.
`Oc1cc(O)c2c(c1)O[C@H](c1cc(O)c(O)c(O)c1)[C@H](O)C2` was tested, and the TGI [1] was > 100 µM, the TGI [2] was > 100 µM and the TGI [3] was 27.6 µM. The TGI [4] was > 100 µM, the TGI [6] was 48.9 µM and the TGI [16] was 46.6 µM. The TGI [7] was 56.7 µM, the TGI [8] was 40.1 µM and the TGI [9] was 56.6 µM. For the same compound, the TGI [11] was 41.9 µM, the TGI [12] was 25.4 µM and the TGI [13] was 33.2 µM. It also gave a TGI [17] of 37.6 µM, a TGI [14] of 32.9 µM and a TGI [15] of 61.2 µM.
With `C[N+](C)(N)CCC[N+](C)(C)N` the TGI [1] was > 100 µM, the TGI [2] was > 100 µM and the TGI [3] was > 100 µM. The TGI [4] was > 100 µM, the TGI [5] was > 100 µM and the TGI [6] was > 100 µM. The TGI [16] was > 100 µM, the TGI [7] was > 100 µM and the TGI [8] was > 100 µM. For the same compound, the TGI [9] was > 100 µM, the TGI [10] was > 100 µM and the TGI [11] was > 100 µM. For the same compound, the TGI [12] was > 100 µM, the TGI [13] was > 100 µM and the TGI [17] was > 100 µM. For the same compound, the TGI [14] was > 100 µM and the TGI [15] was > 100 µM.
For `CCOC(=O)C(=C(SC)SC)c1nn2c(=O)cc(C)nc2s1`, the TGI [1] was > 100 µM, the TGI [2] was 34.4 µM and the TGI [3] was 61.3 µM. The TGI [4] was 31.8 µM, the TGI [5] was 35.8 µM and the TGI [6] was 33.7 µM. The TGI [16] was > 100 µM, the TGI [7] was > 100 µM and the TGI [8] was 35.5 µM. The TGI [9] was 43.7 µM, the TGI [10] was 44.9 µM and the TGI [11] was 47.5 µM. The TGI [12] was 30.7 µM, the TGI [13] was 36.2 µM and the TGI [17] was 36.9 µM. It also gave a TGI [14] of 44.1 µM and a TGI [15] of 54.5 µM.
In the case of `CCOC(=O)NC(Nc1ccc(S(=O)(=O)Nc2ncccn2)cc1)(C(=O)OCC)C(F)(F)F` (configuration not stated), the TGI [1] is reported as > 100 µM, the TGI [2] is reported as > 100 µM and the TGI [3] is reported as > 100 µM. The TGI [4] was > 100 µM, the TGI [5] was > 100 µM and the TGI [6] was > 100 µM. The TGI [16] was > 100 µM, the TGI [7] was > 100 µM and the TGI [8] was > 100 µM. The TGI [9] was > 100 µM, the TGI [11] was > 100 µM and the TGI [12] was > 100 µM. The TGI [13] was > 100 µM, the TGI [17] was > 100 µM and the TGI [14] was > 100 µM. The TGI [15] was > 100 µM.
With `CCCN=C(NC(=O)c1ccc(Cl)cc1)SC` the TGI [1] was 95 µM, the TGI [3] was > 100 µM and the TGI [4] was > 100 µM. For the same compound, the TGI [5] was > 100 µM, the TGI [6] was > 100 µM and the TGI [16] was > 100 µM. For the same compound, the TGI [7] was > 100 µM, the TGI [8] was > 100 µM and the TGI [9] was 89.8 µM. For the same compound, the TGI [11] was > 100 µM, the TGI [12] was > 100 µM and the TGI [13] was > 100 µM. For the same compound, the TGI [17] was > 100 µM, the TGI [14] was > 100 µM and the TGI [15] was > 100 µM.
For `O=P(O)(O)CN1CCN(CP(=O)(O)O)CCN(CP(=O)(O)O)CCN(CP(=O)(O)O)CC1`, the TGI [1] was > 100 µM, the TGI [2] was > 100 µM and the TGI [3] was 95.9 µM. For the same compound, the TGI [4] was 77.7 µM, the TGI [5] was > 100 µM and the TGI [6] was > 100 µM. For the same compound, the TGI [16] was > 100 µM, the TGI [8] was > 100 µM and the TGI [9] was > 100 µM. For the same compound, the TGI [10] was > 100 µM, the TGI [11] was > 100 µM and the TGI [12] was > 100 µM. The TGI [13] was > 100 µM, the TGI [14] was > 100 µM and the TGI [15] was > 100 µM.
With `Nc1ccc(C(=O)Nn2c(-c3ccccc3)nc3ccccc3c2=O)cc1` the TGI [1] was > 100 µM, the TGI [2] was > 100 µM and the TGI [3] was > 100 µM. The TGI [5] was > 100 µM, the TGI [6] was > 100 µM and the TGI [16] was > 100 µM. The TGI [7] was > 100 µM, the TGI [8] was > 100 µM and the TGI [9] was > 100 µM. For the same compound, the TGI [10] was > 100 µM, the TGI [11] was > 100 µM and the TGI [12] was > 100 µM. The TGI [13] was > 100 µM, the TGI [17] was > 100 µM and the TGI [14] was > 100 µM. For the same compound, the TGI [15] was > 100 µM.

Reference: PubChem BioAssay (NCI)
